Test results from US11578055B2, “Triazacyclododecansulfonamide (“TCD”)-based protein secretion inhibitors” (KEZAR LIFE SCIENCES, priority 2018, dated 2023).
Structures can show the parent of a compound that is named as a salt. Where two headings read alike, the source gives them in different places.

What was measured:
[1] = In Vitro Microsome Stability Assay (mouse); type: in vitro ADME
Outline: (§1)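 The value reported is the percentage of parent left after 30 min, calculated from analyte/IS peak-area ratios relative to time zero by LC-MS/MS. Incubations ran at 37° C in 0.1 M potassium phosphate with NADPH and microsomes (stock 20 mg/mL), with compound added from a 0.25 mM DMSO stock. Acetonitrile containing IS stopped the reactions.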

[2] = tested on: multiple myeloma cell line NCl-H929; experiment: H929 Cell Viability Assay; type: cell-based, human; conditions: Homo sapiens, NCI-H929, 48 h
Outline: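 Viability was determined by CellTiter-Glo luminescence after a 48 h, 37 °C exposure of NCI-H929 cells to serial compound dilutions in medium containing 10% FBS. Where stereochemistry is not shown, values refer to a mix of stereoisomers.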

[3] = tested on: full length TNFα (amino acids 1-233) fused to Gaussia Luciferase; experiment: Dox Induced TNFα-FL-Gluc Assay; type: cell-based; conditions: 24 hr, read-out: 24 hr Dox Inducible TNFaFLGluc 293FRT/TO: Mean IC50
Outline: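 Compounds diluted in DMSO/medium with doxycycline were incubated at 37° C, 5% CO2 with 293 T-REx cells stably carrying a Tet-regulated TNFα(1-233)-Gaussia luciferase construct. Data for structures drawn without stereochemistry refer to stereoisomer mixtures.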

[4] = In Vitro Microsome Stability Assay (monkey); type: in vitro ADME
Outline: as §1

[5] = In Vitro Microsome Stability Assay (human); type: in vitro ADME
Outline: as §1

[6] = tested on: multiple myeloma cell line U266B1; experiment: U266 Cell Viability Assay; type: cell-based, human; conditions: Homo sapiens, U-266, 48 hr
Outline: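 Viability was measured by CellTiter-Glo luminescence after 48 h compound exposure at 37° C, 5% CO2. The cells were U266B1 multiple myeloma cells grown in RPMI 1640 plus 10% FBS. Where stereochemistry is not shown, values apply to the stereoisomer mixture.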

[7] = tested on: PD1 signal sequence plus 10 amino acids fused to Gaussia Luciferase (PD1-ss+10aa/Gaussia Luciferase); experiment: Dox Induced PD1-ss-Gluc Assay; type: cell-based; conditions: 24 hr, read-out: 24 hr Dox Inducible PD1ssGluc 293FRT/TO: Mean IC50
Outline: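 Compound dilutions in DMSO/media containing doxycycline were applied to a stable, inducible 293 T-REx line carrying the luciferase fusion, then incubated at 37 °C, 5% CO2. Where stereochemistry is not drawn, values relate to isomer mixtures.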

[8] = In Vitro Microsome Stability Assay (rat); type: in vitro ADME
Outline: as §1

[9] = tested on: full length PD1 (amino acids 1-288) fused to Firefly Luciferase; experiment: Dox Induced PD1-FL-Gluc Assay; type: cell-based; conditions: 24 hr, 293FRT/TO; read-out: 24 hr Dox Inducible PD1FLFluc 293FRT/TO: Mean IC50
Description: FIp-In 293 T-REx™ cells were transfected with pcDNA™5/FRT/TO plasmid inserted with cDNA encoding Firefly Luciferase fused to the 3′ end of cDNA encoding full length PD1 (amino acids 1-288). Transfected cells were selected for resistance to the selectable markers Hygromycin and Blasticidin to create a stable cell line that contained the PD1-FL/Firefly Luciferase cDNA insert whose expression was regulated under the T-REx™ system. The day before assay, cells were trypsinized and plated in 384-well tissue culture plates. The next day, compound dilutions in DMSO/media containing doxycycline were added to the wells and incubated at 37° C., 5% CO2.
For chemical structures that include one or more stereoisomers, but are illustrated without indicating stereochemistry, the assay data refers to a mixture of stereoisomers.

[10] = tested on: full length IL-2 (amino acids 1-153) fused to Gaussia Luciferase; experiment: Dox Induced IL2-FL-Gluc Assay; type: cell-based; conditions: 24 hr, read-out: 24 hr Dox Inducible IL2FLGluc 293FRT/TO: Mean IC50
Outline: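 Compounds in DMSO/media with doxycycline were added to cells plated the previous day and incubated at 37° C, 5% CO2. Cells: stable Flp-In 293 T-REx line, Dox-regulated expression of IL-2 (aa 1-153) fused at its C-terminus to Gaussia luciferase.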

[11] = tested on: HER3 signal sequence plus 4 amino acids fused to Gaussia Luciferase (HER3-ss+4aa/Gaussia Luciferase); experiment: Dox Induced HER3-ss-Gluc Assay; type: cell-based; conditions: 24 hr, doxycycline induced, Flp-In 293 T-REx cells; read-out: 24 hr Dox Inducible Her3(ss + 4) Gluc 293FRT/TO: Mean 1050
Outline: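 Stable Flp-In 293 T-REx line expressing HER3 signal sequence+4aa/Gaussia luciferase under doxycycline-inducible control. Cells plated the day before; compound dilutions added in doxycycline-containing medium and incubated at 37° C, 5% CO2.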

[12] = H929, read-out: 48 hr H929 Viability Celltiter-Glo: Mean EC50
[13] = U266, read-out: 48 hr U266 Viability Celltiter-Glo: Mean EC50
[14] = mouse liver microsomes, 30 min w/ NADPH
[15] = monkey liver microsomes, 30 min w/ NADPH
[16] = human liver microsomes, 30 min w/ NADPH
[17] = rat liver microsomes, 30 min w/ NADPH

Row | Compound | Liver Microsome Stability-% Left after 30 min w/ NADPH (%) Mouse ([1]; mouse, 30 min, NADPH) [%] | EC50 [2, 12] [µM] | IC50 ([3]; 293FRT/TO) [µM] | Liver Microsome Stability-% Left after 30 min w/ NADPH (%) Monkey ([4]; monkey, 30 min, NADPH) [%] | Liver Microsome Stability-% Left after 30 min w/ NADPH (%) Human ([5]; human, 30 min, NADPH) [%] | EC50 [6, 13] [µM] | IC50 ([7]; 293FRT/TO) [µM] | Liver Microsome Stability-% Left after 30 min w/ NADPH (%) Rat ([8]; rat, 30 min, NADPH) [%] | IC50 [9] [µM] | IC50 ([10]; 293FRT/TO) [µM] | Liver Microsome Stability-% Left after 30 min w/ NADPH (%) Mouse [1, 14] [%] | EC50 ([2]; H929, Celltiter-Glo) [µM] | IC50 ([3]; Dox inducible, 293FRT/TO cells) [µM] | Liver Microsome Stability-% Left after 30 min w/ NADPH (%) Monkey [4, 15] [%] | Liver Microsome Stability-% Left after 30 min w/ NADPH (%) Human [5, 16] [%] | EC50 ([6]; U266, Celltiter-Glo) [µM] | IC50 ([7]; Dox inducible, 293FRT/TO cells) [µM] | IC50 [11] [µM] | Liver Microsome Stability-% Left after 30 min w/ NADPH (%) Rat [8, 17] [%] | IC50 ([10]; Dox inducible, 293FRT/TO cells) [µM]
1 | C=C1CN(S(=O)(=O)c2ccc(C)cc2)CCCN(Cc2ccccc2)CCCN(S(=O)(=O)c2ccc(C)cc2)C1 [A1] | 0.21 | > 25 | > 25 | 0.18 | 0.18 | > 25 | 1.03 | 0.12 | 1.4 | 1.17 |  |  |  |  |  |  |  |  |  | 
2 | C=C1CN(S(=O)(=O)c2ccc(C)cc2)CCCN(CC2CCCCC2)CCCN(S(=O)(=O)c2ccc(C)cc2)C1 [A2] | 0.09 | 10.1 | > 25 | 0.09 | 0.04 | > 25 | 0.345 | 0.59 | 0.807 |  |  |  |  |  |  |  |  |  |  | 
3 | C=C1CN(S(=O)(=O)c2ccc(C)cc2)CCCN(CC2CCCCC2)CCCN(S(=O)(=O)c2ccc(OC)cc2)C1 [A3] | 0.09 | 5.08 | 11.4 | 0.83 | 0.25 | > 25 | 0.241 | 0.37 | 0.638 |  |  |  |  |  |  |  |  |  |  | 
4 | C=C1CN(S(=O)(=O)c2ccc(C)cc2)CCCN(CC2CCCCC2)CCCN(S(=O)(=O)c2ccc(N(C)C)cc2)C1 [A4] | 0.56 | 1.22 | 3.76 | 1.17 | 0.25 | > 25 | 0.0939 | 1.17 | 0.311 |  |  |  |  |  |  |  |  |  |  | 
5 | Cc1ccc(S(=O)(=O)N2CCCN(CC3CCCCC3)CCCN(S(=O)(=O)c3ccc(N(C)C)cc3)CC3(CC3)C2)cc1 [A11, 4-{[9-(cyclohexylmethyl)-13-(4-methylbenzenesulfonyl)-5,9,13-triazaspiro[2.11]tetradecan-5-yl]sulfonyl}-N,N-dimethylaniline hydrochloride] | 0.18 | > 25 | > 25 | 0.08 | 0.21 | > 25 | 0.365 | 0.17 | 0.866 | 0.624 |  |  |  |  |  |  |  |  |  | 
6 | Cc1ccc(S(=O)(=O)N2CCCN(CC3CCCCC3)CCCN(S(=O)(=O)c3ccc(N(C)C)cc3)CCC2)cc1 [A14, 4-((5-(cyclohexylmethyl)-9-tosyl-1,5,9-triazacyclododecan-1-yl)sulfonyl)-N,N-dimethylaniline] | 5.39 | > 25 | > 25 | 1.4 | 0.08 | > 25 | 0.64 | 1.13 | 1.23 | 1.16 |  |  |  |  |  |  |  |  |  | 
7 | C=C1CN(S(=O)(=O)c2ccc(N(C)C)cc2)CCCN(CC2CCCCC2)CCCN(S(=O)(=O)N2CCC(c3ccccc3)CC2)C1 [A35, 4-{[9-(cyclohexylmethyl)-3-methylidene-5-[(4-phenylpiperidin-1-yl)sulfonyl]-1,5,9-triazacyclododecan-1-yl]sulfonyl}-N,N-dimethylaniline hydrochloride] | 20.9 | > 25 | > 11.9 | 13.6 | 24.8 | > 25 | 0.083 | 30 | 0.244 |  |  |  |  |  |  |  |  |  |  | 
8 | C=C1CN(S(=O)(=O)c2c(F)cc(N(C)C)cc2F)CCCN(CC2CCCCC2)CCCN(S(=O)(=O)N2CCC(c3ccccc3)CC2)C1 [A86] | 34.1 | 5.63 | > 25 | 29.2 | 41.3 | > 25 |  | 39.9 | 0.429 | 0.395 |  |  |  |  |  |  |  |  |  | 
9 | COc1cccc([C@@H]2CCCN(S(=O)(=O)N3CCCN(CC4CCCCC4)CCCN(S(=O)(=O)c4ccc(N(C)C)cc4)C[C@H](C)C3)C2)c1 [A209] |  |  |  |  |  |  |  |  |  |  | 31.8 | > 25 | > 25 | 45.7 | 22.6 | > 25 | 0.327 | 0.498 | 44.7 | 0.673
10 | COc1ccccc1[C@@H]1CCCN(S(=O)(=O)N2CCCN(CC3CCCCC3)CCCN(S(=O)(=O)c3ccc(N(C)C)cc3)C[C@H](C)C2)C1 [A210] |  |  |  |  |  |  |  |  |  |  | 76.0 | > 25 | > 25 | 55.4 | 47.4 | > 25 | 0.203 | 0.343 | 54.6 | 0.447
11 | CN(C)c1ccc(S(=O)(=O)N2CCCN(CC3CCCCC3)CCCN(S(=O)(=O)N3CCc4cc(Cl)ccc4C3)C[C@H]3CC[C@@H]32)cc1 [B22, 4-{[(1S,12R)-10-[(6-chloro-1,2,3,4-tetrahydroisoquinolin-2-yl]sulfonyl]-6-(cyclohexylmethyl)-2,6,10-triazabicyclo[10.2.0]tetradecan-2-yl]sulfonyl}-N,N-dimethylaniline] |  |  |  |  |  |  |  |  |  |  | 8.31 | 1.65 | 0.519 | 1.77 | 1.77 | > 25 | 0.0313 | 0.0578 | 10.1 | 0.0805
